Measured values published in ChEMBL document CHEMBL1132766, “Synthesis and antiamoebic activity of new cyclooctadiene ruthenium(II) complexes with 2-acetylpyridine and benzimidazole derivatives” (Bioorg Med Chem Lett, 2000).
Values after ≈ are worked out from the molar mass of the structure shown.

test system: Entamoeba histolytica; test: Tested for antiamoebic activity against HK-9 strain of Entamoeba histolytica; format: functional, organism-based

Structure (SMILES)	IC50 [µg/mL]
c1ccc(-c2nc3ccccc3[nH]2)nc1	0.42 (≈ 2.15 µM)
C/C(=N\N=C(/S)SCc1ccccc1)c1ccccn1	0.4 (≈ 1.33 µM)
Cc1ncc([N+](=O)[O-])n1CCO [METRONIDAZOLE]	0.33 (≈ 1.93 µM)

The remaining lines, values ahead:

IC50 [µg/mL]	Structure (SMILES)
0.31 (≈ 1.6 µM)	C/C(=N\NC(N)=S)c1ccccn1
0.38 (≈ 1.69 µM)	CS/C(S)=N/N=C(\C)c1ccccn1
